Test results from patent US12303590B2, “Method of treating osteoarthritis” (ORTHOTROPHIX, INC., priority 2018, dated 2025).
Peptide text beside a SMILES is read from it.

Columns and labels:
[1] = test system: standardized large cartilage defects; conditions: in vivo; cited from earlier work
[2] = test system: subjects with bilateral patello-femoral knee osteoarthritis; assay: Randomized double-blind placebo-controlled study of TPX-100 in patients with osteoarthritis of the knees (Example 1); assay type: in vivo, human
Description: A multicenter, randomized double-blind, placebo-controlled study was designed to investigate the safety, tolerability, pharmacokinetics, and efficacy of TPX-100 administered in four weekly doses in subjects with bilateral patello-femoral knee osteoarthritis. The study was conducted under an open IND (investigational new drug application) at CDER (Center for Drug Evaluation and Research) of the U.S. FDA (The United States Food and Drug Administration) in compliance with GCP (Good Clinical Practice) and ICH (International Conference on Harmonization of Technical Requirements for Registration of Pharmaceuticals for Human Use) guidelines. Eighteen (18) orthopedic, rheumatologic and family practice centers in the U.S. participated in the study.
The study was divided into Part A and Part B. The Part A was designed to evaluate safety of intra-articular (I.A.) administration of TPX-100 at different dosing levels (20, 50, 100, or 200 mg per injection in sequential cohorts) in the subjects with osteoarthritis of the knees and to select a dose for Part B. Part B was to evaluate safety and efficacy of the selected dose of TPX-100.
Subjects in Part A were enrolled in sequential cohorts and randomized to receive 20, 50, 100 or 200 mg of TPX-100 in one knee (Index Knee) and identical placebo in the contralateral (Control) knee. Subjects, sites and sponsor and central MRI readers were blinded as to treatment assignment. A Safety Review Committee (SRC) evaluated safety in each dosing cohort. The SRC assessed safety and determined whether the next higher dosing regimen could be enrolled. All dosing cohorts in Part A were completed and analyzed with regard to safety prior to dose selection and initiation of Part B.
Part A included four (4) intra-articular (I.A.) injections, one per week, in sequential dosing cohorts of 20, 50, 100 and 200 mg TPX-100 versus placebo. Six (6) subjects were enrolled in 20, 50, and 100 mg cohorts, respectively, and nine (9) subjects were enrolled in the 200 mg cohort.
The 200 mg dose was selected for Part B based on safety review and the approval of the SRC. […] Per the Statistical Analysis Plan, these subjects were combined with the nine subjects in the 200 mg cohort of Part A for the efficacy analysis. In total, data from 93 subjects was analyzed for drug efficacy, each of whom received 4 once-weekly injections of TPX-100, 200 mg/dose, in the Index knee and identical placebo in the contralateral knee, as randomly assigned. […]
If all clinical inclusion and exclusion criteria were met, MRIs of both knees were obtained and evaluated by a central reader to determine the ICRS grade (gICRS) of each knee as the final screening criterion. […]

defects in human molar = conditions: both Phase 2 studies (alveolar bone and dentin); cited from earlier work
[3] = human, in vivo; cited from earlier work
[4] = test system: human osteoblastic mesenchymal stem cells; conditions: U.S. Pat. Nos. 7,888,462 and 8,426,558; cited from earlier work

For `CC[C@H](C)[C@H](NC(=O)[C@H](CC(=O)O)NC(=O)[C@H](CC(N)=O)NC(=O)[C@H](CC(=O)O)NC(=O)CNC(=O)[C@H](CCCNC(=N)N)NC(=O)[C@H](CCC(=O)O)NC(=O)[C@H](CCC(N)=O)NC(=O)[C@H](CC(C)C)NC(=O)[C@H](CC(=O)O)NC(=O)[C@@H](N)[C@@H](C)O)C(=O)N[C@@H](CO)C(=O)N1CCC[C@H]1C(=O)N[C@@H](Cc1ccccc1)C(=O)N[C@@H](CO)C(=O)NCC(=O)N[C@@H](CC(=O)O)C(=O)NCC(=O)N[C@@H](CCC(N)=O)C(=O)N1CCC[C@H]1C(=O)N[C@@H](Cc1ccccc1)C(=O)N[C@@H](CCCCN)C(=O)N[C@@H](CC(=O)O)C(N)=O` [TPX-100] (H-TDLQERGDNDISPFSGDGQPFKD-NH2; N-terminus assumed), the Safety and tolerability [1] is listed as “safe and well-tolerated”, the Dose-limiting toxicities ([2]; Part A, 20, 50, 100 and 200 mg per injection) is listed as “no dose-limiting toxicities” and the Severe adverse events ([2]; human, in vivo) is listed as “no severe adverse events that were related to TPX-100 treatment”. The Treatment-related adverse events ([2]; human, in vivo) was “mild or moderate, transient”, the Safety and tolerability ([2]; intra-articular, Days 0, 7, 14, 21) was “safe and well tolerated” and the Tolerability (defects in human molar) was “well tolerated in both studies”.

For `N#Cc1c(N(CC(=O)[O-])CC(=O)[O-])sc(C(=O)[O-])c1CC(=O)[O-].[Sr+2].[Sr+2]` [strontium ranelate], the Adverse effect [3] is listed as “increase the risk of myocardial infarction”.

In the case of “PDLLVRGDNDVPPFSGDGQHFMH [rat orthologue, TPX-100 orthologue (Rat/Mouse)]”, the Tritium-thymidine incorporation [4] is listed as “promote tritium-thymidine incorporation”.
